Assay results published in paper PMC9305623, “Next generation GLP-1/GIP/glucagon triple agonists normalize body weight in obese mice” (Molecular Metabolism, 2022).
*1 amine or outer side, *2 acyl side, *3 side chain or, on linkers, in order; H or OH if unused. Where a SMILES comes first, the peptide text is derived from it. Side-chain parts run from the residue outwards. [ ]: non-standard residue; d: D form. The star is where a group is joined. C20 diacid = O=C(O)CCCCCCCCCCCCCCCCCCC(=O)*; γGlu = O=C(O)[C@H](CCC(=O)[*:2])N[*:1]; εLys = N[C@@H](CCCCN[*:1])C(=O)[*:2]; Aib = CC(C)(N)C(=O)O

Legend:
in vivo = test: in vivo; design: species or system Göttingen minipigs; conditions: female, Göttingen, minipig, iv, 2 nmol/kg
Protocol: Studies were conducted in accordance with the Protection of Animals Act, the Act on Experiments on Animals, and the Standard Operating Procedures for Experiments on Animals at Novo Nordisk A/S. The experiments were performed under the supervision and approval of the Danish Government Animal Experiments Inspectorate and the Novo Nordisk Ethical Review Counsel. Female Göttingen minipigs (Ellegaard Göttingen Minipigs A/S), 7–14 months old and weighing 16–35 kg, were housed individually and fed once daily with a restricted SDS minipig diet (Special Diets Services). At least one week before the study, two permanent central venous catheters were implanted in the caudal vena cava of each animal. The animals were fasted for approximately 18 h before dosing and 4 h after dosing but had ad libitum access to water during the whole period. Test compounds dissolved to a concentration of 20–40 nmol/mL in a vehicle (pH 7.4) containing 0.025% polysorbate-20, 10 mM sodium phosphate, and 250 mM glycerol were administered via an intravenous injection through one catheter at a dose of 2 nmol/kg. Blood samples were collected in 8 mM aqueous EDTA for up to 14 days post dosing, preferably through the other catheter, then centrifuged at 4 °C and ∼2000g for 10 min. Plasma was isolated and immediately frozen until RP-HPLC/MS analysis. Individual plasma concentration–time profiles were analysed by a non-compartmental model in Phoenix WinNonLin software (Pharsight Inc.), and the resulting terminal half-lives were determined at the harmonic mean.

DIO mice [1] = test: Energy expenditure in DIO mice (indirect calorimetry); type: in vivo, mouse; conditions: daily injections of 3 nmol/kg for 5 days inside an indirect calorimeter
Protocol: Energy expenditure was assessed using a combined indirect calorimetry system (TSE Systems, Chesterfield, MO). Animals were kept in the indirect calorimetry system for 7d; d1 (0–24h) included acclimation to the new cages but no energy expenditure readings, d2 included baseline energy expenditure readings with vehicle injections, d3-7 included experimental energy expenditure readings and treatment injections. Treatment injections begin at t = 48h as indicated by the vertical dashed line and were performed every 24h as indicated by the arrows. O2 consumption and CO2 production were measured every 20 min to determine the respiratory quotient and energy expenditure using the Weir equation (EE=(3.94 x vO2) + (1.1 x vCO2)).

hGLP-1 Receptor = target: T1, hGLP-1 Receptor (Homo sapiens, UniProt P43220); test: Receptor activation: cAMP production by CRE-luciferase reporter in stably transfected BHK cells; type: cell-based; conditions: compared to the native ligand for the receptor
T1 construct: expressed in transfected cells; host or cells: baby hamster kidney (BHK) cells, stably transfected, with CRE-firefly luciferase reporter
T1 sequence (P43220 24-463): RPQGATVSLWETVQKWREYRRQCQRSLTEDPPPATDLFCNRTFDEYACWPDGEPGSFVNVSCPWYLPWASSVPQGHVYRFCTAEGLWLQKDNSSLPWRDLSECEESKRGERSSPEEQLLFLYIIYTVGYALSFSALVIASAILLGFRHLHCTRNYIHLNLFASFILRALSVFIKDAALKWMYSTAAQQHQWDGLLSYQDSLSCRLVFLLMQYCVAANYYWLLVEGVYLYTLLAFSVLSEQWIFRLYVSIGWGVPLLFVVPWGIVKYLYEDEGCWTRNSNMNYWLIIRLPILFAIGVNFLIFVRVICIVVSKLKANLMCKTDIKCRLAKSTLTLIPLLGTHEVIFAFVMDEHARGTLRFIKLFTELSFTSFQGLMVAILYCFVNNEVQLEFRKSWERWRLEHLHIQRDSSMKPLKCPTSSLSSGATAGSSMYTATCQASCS
Procedure, shortened: (§1)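 BHK cells stably expressing one human receptor plus a CRE-firefly luciferase reporter were stimulated 3 h at 37 °C in phenol-red-free DMEM with 1% ovalbumin and 0.1% Pluronic F-68.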

hGIP Receptor = target: T2, hGIP Receptor (Homo sapiens, UniProt P48546); test: as above; type: cell-based; conditions: compared to the native ligand for the receptor
T2 construct: expressed in transfected cells; host or cells: baby hamster kidney (BHK) cells, stably transfected, with CRE-firefly luciferase reporter
T2 sequence (P48546 22-466): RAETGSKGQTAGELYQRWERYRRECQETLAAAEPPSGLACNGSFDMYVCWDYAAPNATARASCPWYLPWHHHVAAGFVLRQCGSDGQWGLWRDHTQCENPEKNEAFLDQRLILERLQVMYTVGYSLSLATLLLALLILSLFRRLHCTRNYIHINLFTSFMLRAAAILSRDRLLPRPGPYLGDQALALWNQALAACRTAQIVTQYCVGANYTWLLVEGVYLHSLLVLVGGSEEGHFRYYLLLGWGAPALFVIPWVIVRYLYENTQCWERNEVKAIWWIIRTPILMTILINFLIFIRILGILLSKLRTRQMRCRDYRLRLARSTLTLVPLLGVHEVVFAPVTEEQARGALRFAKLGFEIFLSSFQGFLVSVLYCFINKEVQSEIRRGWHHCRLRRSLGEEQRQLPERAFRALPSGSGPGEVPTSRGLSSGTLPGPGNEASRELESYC
Procedure, shortened: as §1

DIO mice [2] = test: Plasma parameters in DIO mice after chronic treatment; type: in vivo, mouse; conditions: higher dose (2 nmol/kg), compared to vehicle

Structure (SMILES): CC[C@H](C)[C@H](NC(=O)[C@H](CO)NC(=O)[C@H](Cc1ccc(O)cc1)NC(=O)[C@H](CC(=O)O)NC(=O)[C@H](CO)NC(=O)[C@@H](NC(=O)[C@H](Cc1ccccc1)NC(=O)[C@@H](NC(=O)CNC(=O)[C@H](Cc1c[nH]cn1)NC(=O)C(C)(C)NC(=O)[C@@H](N)Cc1c[nH]cn1)[C@@H](C)O)[C@@H](C)O)C(=O)N[C@@H](Cc1ccc(O)cc1)C(=O)N[C@@H](CC(C)C)C(=O)N[C@@H](CCC(=O)O)C(=O)N[C@@H](CCCCNC(=O)[C@@H](N)CCCCNC(=O)[C@@H](N)CCCCNC(=O)CC[C@H](NC(=O)CCCCCCCCCCCCCCCCCCC(=O)O)C(=O)O)C(=O)N[C@@H](CCCCN)C(=O)N[C@@H](Cc1ccc(O)cc1)C(=O)N[C@@H](C)C(=O)NC(C)(C)C(=O)N[C@@H](CCC(=O)O)C(=O)N[C@@H](Cc1ccccc1)C(=O)N[C@H](C(=O)N[C@@H](CCC(N)=O)C(=O)N[C@@H](Cc1c[nH]c2ccccc12)C(=O)N[C@@H](CC(C)C)C(=O)N[C@@H](CC(C)C)C(=O)N[C@@H](CCC(=O)O)C(=O)NCC(=O)NCC(=O)N1CCC[C@H]1C(=O)N[C@@H](CO)C(=O)N[C@@H](CO)C(=O)NCC(=O)N[C@@H](C)C(=O)N1CCC[C@H]1C(=O)N1CCC[C@H]1C(=O)N1CCC[C@H]1C(=O)N[C@@H](CO)C(N)=O)C(C)C [Compound 16] (H-H[Aib]HGTFTSDYSIYLEK([εLys-εLys-γGlu-C20 diacid])KYA[Aib]EFVQWLLEGGPSSGAPPPS-NH2)
- Vd (in vivo): 0.164 L/kg
- clearance (in vivo): 1.5 mL/h/kg
- half-life (in vivo): 75 h
- energy expenditure (DIO mice [1]): increased energy expenditure over both vehicle and tirzepatide
- locomotor activity (DIO mice [1]): not accompanied by a change in locomotor activity
- hGLP-1 Receptor Relative Potency % (hGLP-1 Receptor): 177%
- hGIP Receptor Relative Potency % (hGIP Receptor): 67%
- insulin levels (DIO mice [2]): decreased
